“And” between values parts separate entries of the source, which are not always exact repeats. Equal values may be shown once.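 Cells were grown in 96-well plates and exposed to each compound for 48 hours at five concentrations; endpoints were interpolated linearly between bracketing concentrations, or set to the highest concentration if not reached. GI50 = concentration required for 50% inhibition of growth. TGI denotes the concentration required for complete inhibition of growth.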 Where a SMILES comes first, the peptide text is derived from it. Bridges are numbered along the chain shown (N, C = ends). [ ]: non-standard residue; d: D form. aThr = C[C@H](O)[C@H](N)C(=O)O
Tests used:
Assay in all cases: NCI-60 cell line screen, 48 h
[1] = tested on: CAKI-1 renal
[2] = tested on: HCC-2998 colon
[3] = tested on: HS 578T breast
[4] = tested on: IGROV1 ovarian
[5] = tested on: M14 melanoma
[6] = tested on: NCI-H226 lung
[7] = tested on: OVCAR-4 ovarian
[8] = tested on: OVCAR-8 ovarian
[9] = tested on: SNB-19 CNS
[10] = tested on: UACC-257 melanoma

Compound | GI50 [1] | TGI [1] | GI50 [2] | TGI [2] | GI50 [3] | TGI [3] | GI50 [4] | TGI [4] | GI50 [5] | TGI [5] | GI50 [6] | TGI [6] | GI50 [7] | TGI [7] | GI50 [8] | GI50 [9] | TGI [9] | GI50 [10] | TGI [10] | TGI [8]
CCN(CC)c1ccc2nc3ccc(=[N+](CC)CC)cc-3oc2c1 | 2.71 µM | > 31.8 µM | 0.395 µM | 39.4 µM | 1.37 µM | 5.94 µM | 0.107 µM | 0.862 µM | 0.0903 µM | 1.71 µM | 0.729 µM | 3.8 µM | 0.0463 µM | 1.28 µM | 0.121 µM | 0.786 µM | > 35.3 µM | 0.0457 µM | 0.654 µM | –
COc1cc(-c2nccc3[nH]c(-c4ccc5cc[nH]c5c4)nc23)cc(OC)c1OC | < 0.01 µM | 11.2 µM | < 0.01 µM | 1.43 µM | < 0.01 µM | 10.3 µM | 0.015 µM | 3.77 µM | – | – | – | – | 0.0307 µM | 17.1 µM | < 0.01 µM | < 0.01 µM | 15.8 µM | – | – | 11.1 µM
CC(=O)O[C@H]1CC2C(C3CC[C@H](C(C)CCC(=O)O)[C@]31C)[C@H](OC(C)=O)C[C@@H]1CC3(CC[C@]21C)OOC1(CCC(C)CC1)OO3 (stereo partly drawn) | 6.75 µM and 2.23 µM | 19.1 µM and 6.49 µM | 8.43 µM and 2.73 µM | 21.3 µM and 6.48 µM | – | 13.8 µM and 4.77 µM | – | 4.64 µM and 2.76 µM | – | 19.3 µM and 10.9 µM | 4.56 µM and 2.11 µM | 22.8 µM and 5.34 µM | – | 12.2 µM and 5.77 µM | – | 7.57 µM and 3.57 µM | 20.1 µM and 14.7 µM | – | 24.8 µM and 24.3 µM | 14.1 µM and 5.66 µM
COc1ccccc1CNCCN1C(=O)c2ccc3c4c(ccc(c24)C1=O)C(=O)N(CCNCc1ccccc1OC)C3=O | 1.64 µM | 5.26 µM | 0.182 µM | 0.354 µM | 1.17 µM | 4.88 µM | 0.203 µM | 0.549 µM | 0.189 µM | 0.378 µM | 1.26 µM | 2.77 µM | 0.132 µM | 0.261 µM | 0.215 µM | – | – | 0.196 µM | 0.387 µM | 0.505 µM
CCOC(=O)/C(=C\c1cccc(C)c1)C(C)=O | – | 98.8 µM | – | 28.4 µM | – | 51.3 µM | – | 40.8 µM | – | 44.3 µM | – | > 100 µM | – | 59.6 µM | – | – | 36.7 µM | – | 35.1 µM | 75.1 µM
Cc1cccc(Cn2cc(CO)c3cnccc32)c1 | > 100 µM | > 100 µM | > 100 µM | > 100 µM | > 100 µM | > 100 µM | 44.8 µM | > 100 µM | > 100 µM | > 100 µM | 32 µM | > 100 µM | 78.3 µM | > 100 µM | 53.7 µM | > 100 µM | > 100 µM | 44.2 µM | > 100 µM | > 100 µM
O=C(COc1ccc(/C=C2\Oc3ccccc3C2=O)cc1)Nc1nc2ccccc2s1 | 1.79 µM | – | 33.1 µM | > 100 µM | 18.1 µM | 96.4 µM | – | – | 38.4 µM | > 100 µM | 23.3 µM | > 95.5 µM | 21.2 µM | > 100 µM | 0.321 µM | 41.4 µM | > 100 µM | 8.24 µM | 45.2 µM | > 100 µM
COCCOC1=C(Cl)C(=O)c2ccccc2C1=O | 2.83 µM | 9.83 µM | 4.23 µM | 15 µM | 2.94 µM | 12.7 µM | 2.62 µM | 6.44 µM | – | – | 4.18 µM | 15.8 µM | 2.17 µM | 4.68 µM | 3.11 µM | 4.55 µM | 16.8 µM | 2 µM | 4.36 µM | 10.7 µM
CC(C)C[C@@H]1NC(=O)[C@@H]2CCCN2C(=O)[C@@H]2CCCN2C(=O)[C@H](CC(C)C)NC(=O)[C@H](CO)NC(=O)[C@H](CCCCN)NC(=O)[C@H]([C@H](C)O)NC(=O)[C@@H]2CSSC[C@@H](NC1=O)C(=O)N[C@@H](Cc1ccccc1)C(=O)N1CCC[C@H]1C(=O)N[C@@H](CC(=O)O)C(=O)NCC(=O)N[C@@H](CCCN=C(N)N)C(=O)N2 (cyclo(C[aThr]KSLPPL[dC]FPDGR); disulfide 1-9) | > 50 µM | > 50 µM | > 50 µM | > 50 µM | > 50 µM | > 50 µM | > 46.4 µM | > 50 µM | – | – | > 50 µM | > 50 µM | > 50 µM | > 50 µM | > 50 µM | > 50 µM | > 50 µM | > 50 µM | > 50 µM | > 50 µM
NC(N)=NCCCC(NCc1c2ccccc2nc2ccccc12)C(=O)O (stereo not drawn) | – | > 100 µM | – | > 100 µM | – | > 100 µM | – | > 100 µM | – | > 100 µM | – | > 100 µM | – | > 84.7 µM | – | – | > 100 µM | – | > 88.6 µM | > 86 µM
